What was measured:
Assay type in all cases: biochemical
JAK2 = JAK2 (Homo sapiens, UniProt O60674); test: JAK2 inhibition assay (radioactive enzyme assay, as for JAK3); conditions: average Ki if more than one value determined
Method: (§1) Compounds were screened for their ability to inhibit JAK3 using a standard radioactive enzyme assay. 1.5 μL/well of a DMSO stock containing serial dilutions of a compound of the present invention (concentrations ranging from 667 μM to 46 nM) was placed in a 96 well polycarbonate plate. 50 μL per well of kinase buffer (100 mM HEPES (pH 7.4), 10 mM MgCl2, 25 mM NaCl, 1 mM DTT, and 0.01% bovine serum albumin (BSA)) containing 2 μM poly(Glu)4Tyr and 10 μM ATP was also added to the plate. To initiate the reaction, 50 μL kinase buffer containing 2 nM JAK3 enzyme was added. Final ATP concentration was 5 μM [γ-^33P] ATP (200 μCi ^33P ATP/μmol ATP (Perkin Elmer, Cambridge, Mass.). After 20 minutes at room temperature (25° C.), the reaction was stopped by adding 50 μL 20% trichloroacetic acid (TCA)/0.4 mM ATP to each well. The entire content of each well was then transferred to a 96 well glass fiber filter plate using a TomTek Cell Harvester. After washing, 60 μL scintillation fluid was added and ^33P incorporation detected using a Perkin Elmer TopCount. After removing mean background values for all of the data points the data was fit using Prism software to obtain a Ki(app). Inhibition of JAK2 was measured as above except that final poly(Glu)4Tyr concentration was 15 μM and final ATP concentration was 12 μM.

JAK3 = target: T1, JAK3 (Homo sapiens, UniProt P52333); test: JAK3 inhibition assay (standard radioactive enzyme assay); conditions: average Ki if more than one value determined
T1 sequence (P52333 1-1124): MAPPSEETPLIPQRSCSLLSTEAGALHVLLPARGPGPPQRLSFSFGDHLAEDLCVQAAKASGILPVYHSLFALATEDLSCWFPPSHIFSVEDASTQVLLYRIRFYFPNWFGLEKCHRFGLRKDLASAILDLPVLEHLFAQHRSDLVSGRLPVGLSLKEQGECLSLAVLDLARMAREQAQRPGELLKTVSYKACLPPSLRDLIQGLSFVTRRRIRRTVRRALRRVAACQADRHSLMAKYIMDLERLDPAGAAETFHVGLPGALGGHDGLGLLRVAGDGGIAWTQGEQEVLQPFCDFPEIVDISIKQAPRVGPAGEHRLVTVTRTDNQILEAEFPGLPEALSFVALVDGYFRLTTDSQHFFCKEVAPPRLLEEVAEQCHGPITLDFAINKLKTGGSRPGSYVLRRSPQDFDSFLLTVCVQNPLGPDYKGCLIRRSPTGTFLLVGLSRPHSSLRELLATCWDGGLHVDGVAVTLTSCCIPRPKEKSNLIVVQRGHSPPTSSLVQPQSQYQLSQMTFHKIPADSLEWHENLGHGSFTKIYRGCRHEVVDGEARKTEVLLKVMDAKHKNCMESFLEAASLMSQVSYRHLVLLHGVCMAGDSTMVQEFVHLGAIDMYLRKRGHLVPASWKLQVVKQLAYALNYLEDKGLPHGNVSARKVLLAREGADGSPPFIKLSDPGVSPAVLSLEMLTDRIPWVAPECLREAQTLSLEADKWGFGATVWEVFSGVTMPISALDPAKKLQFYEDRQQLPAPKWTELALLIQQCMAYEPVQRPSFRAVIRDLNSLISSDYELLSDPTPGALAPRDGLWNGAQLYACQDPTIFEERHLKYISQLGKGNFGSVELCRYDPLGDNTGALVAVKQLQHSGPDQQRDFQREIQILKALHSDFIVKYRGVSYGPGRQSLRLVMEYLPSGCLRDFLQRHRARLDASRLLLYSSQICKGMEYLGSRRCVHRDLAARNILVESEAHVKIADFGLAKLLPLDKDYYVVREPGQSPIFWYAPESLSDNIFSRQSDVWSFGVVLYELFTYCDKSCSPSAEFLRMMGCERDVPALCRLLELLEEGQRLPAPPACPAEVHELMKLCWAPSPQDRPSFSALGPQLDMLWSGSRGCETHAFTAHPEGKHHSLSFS
Method: as §1

ROCK I (AA 6-553) = target: T2, ROCK I (AA 6-553) (Homo sapiens, UniProt Q13464); test: ROCK inhibition assay, standard coupled enzyme system ("Enzyme"); conditions: enzyme-linked assay
T2 construct: ROCK I (AA 6-553)
T2 sequence (Q13464 6-553, species assumed): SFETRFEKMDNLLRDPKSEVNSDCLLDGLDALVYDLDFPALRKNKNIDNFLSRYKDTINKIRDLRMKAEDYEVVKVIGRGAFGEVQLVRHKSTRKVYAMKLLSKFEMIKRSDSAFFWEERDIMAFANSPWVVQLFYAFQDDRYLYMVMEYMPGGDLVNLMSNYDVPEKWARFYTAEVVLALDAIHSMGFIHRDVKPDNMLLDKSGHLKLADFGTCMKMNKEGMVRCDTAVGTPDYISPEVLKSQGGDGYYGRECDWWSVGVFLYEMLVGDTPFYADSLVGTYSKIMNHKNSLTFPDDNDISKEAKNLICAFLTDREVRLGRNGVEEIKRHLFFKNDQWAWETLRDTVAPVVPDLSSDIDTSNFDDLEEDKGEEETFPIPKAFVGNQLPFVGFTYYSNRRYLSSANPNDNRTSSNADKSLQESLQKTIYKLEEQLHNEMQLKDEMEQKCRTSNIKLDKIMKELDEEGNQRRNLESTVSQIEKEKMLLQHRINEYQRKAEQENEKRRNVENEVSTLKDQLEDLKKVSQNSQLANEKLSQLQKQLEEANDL
Method: Compounds were screened for their ability to inhibit ROCK I (AA 6-553) activity using a standard coupled enzyme system (Fox et al. (1998) Protein Sci. 7, 2249). Reactions were carried out in a solution containing 100 mM HEPES (pH 7.5), 10 mM MgCl2, 25 mM NaCl, 2 mM DTT and 1.5% DMSO. Final substrate concentrations in the assay were 45 μM ATP (Sigma Chemicals, St Louis, Mo.) and 200 μM peptide (American Peptide, Sunnyvale, Calif.). Reactions were carried out at 30° C. and 45 nM ROCK L. Final concentrations of the components of the coupled enzyme system were 2.5 mM phosphoenolpyruvate, 350 μM NADH, 30 μg/ml pyruvate kinase and 10 μg/ml lactate dehydrogenase.

[1] = target: T3, full length Aurora-A (AA 1-403) (Homo sapiens, UniProt O14965); test: Aurora-A inhibition assay, standard coupled enzyme system; conditions: average Ki if more than one value determined
T3 construct: full length Aurora-A (AA 1-403)
T3 sequence (O14965 1-403): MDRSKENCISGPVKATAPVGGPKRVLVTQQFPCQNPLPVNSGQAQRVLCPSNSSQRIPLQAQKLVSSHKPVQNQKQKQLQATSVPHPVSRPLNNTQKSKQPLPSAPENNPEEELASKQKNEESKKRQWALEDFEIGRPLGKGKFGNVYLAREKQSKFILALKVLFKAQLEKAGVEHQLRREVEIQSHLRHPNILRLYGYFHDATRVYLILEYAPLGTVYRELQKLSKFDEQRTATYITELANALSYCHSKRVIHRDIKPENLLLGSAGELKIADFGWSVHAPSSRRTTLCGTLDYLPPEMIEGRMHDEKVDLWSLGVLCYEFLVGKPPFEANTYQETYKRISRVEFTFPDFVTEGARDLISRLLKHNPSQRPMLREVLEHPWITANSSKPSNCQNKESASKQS
Method: Compounds were screened for their ability to inhibit full length Aurora-A (AA 1-403) activity using a standard coupled enzyme system (Fox et al., Protein Sci. 7, pp. 2249 (1998)). Reactions were carried out in a solution containing 100 mM HEPES (pH 7.5), 10 mM MgCl2, 25 mM NaCl, 300 μM NADH, 1 mM DTT and 3% DMSO. Final substrate concentrations in the assay were 200 μM ATP (Sigma Chemicals, St Louis, Mo.) and 800 μM peptide (LRRASLG, American Peptide, Sunnyvale, Calif.). Reactions were carried out at 30° C. and 35 nM Aurora-A. Final concentrations of the components of the coupled enzyme system were 2.5 mM phosphoenolpyruvate, 200 μM NADH, 60 μg/ml pyruvate kinase and 20 μg/ml lactate dehydrogenase.
An assay stock buffer solution was prepared containing all of the reagents listed above with the exception of ATP and the test compound of interest. The assay stock buffer solution (60 μl) was incubated in a 96 well plate with 2 μl of the test compound of interest at final concentrations spanning 0.002 μM to 30 μM at 30° C. for 10 min. Typically, a 12 point titration was conducted by preparing serial dilutions (from 1 mM compound stocks) with DMSO of the test compounds in daughter plates. The reaction was initiated by the addition of 5 μl of ATP (final concentration 200 μM). Rates of reaction were obtained using a Molecular Devices Spectramax plate reader (Sunnyvale, Calif.) over 10 min at 30° C. The Ki values were determined from the rate data as a function of inhibitor concentration using computerized nonlinear regression (Prism 3.0, Graphpad Software, San Diego, Calif.). Aurora-C activity was screened in a similar manner using Aurora-C protein. Aurora-B activity was screened using a radioactive assay, such as described in Examples 1 and 2, but using Aurora-B protein.

Chain of JAK2 (O60674 whole entry, species assumed): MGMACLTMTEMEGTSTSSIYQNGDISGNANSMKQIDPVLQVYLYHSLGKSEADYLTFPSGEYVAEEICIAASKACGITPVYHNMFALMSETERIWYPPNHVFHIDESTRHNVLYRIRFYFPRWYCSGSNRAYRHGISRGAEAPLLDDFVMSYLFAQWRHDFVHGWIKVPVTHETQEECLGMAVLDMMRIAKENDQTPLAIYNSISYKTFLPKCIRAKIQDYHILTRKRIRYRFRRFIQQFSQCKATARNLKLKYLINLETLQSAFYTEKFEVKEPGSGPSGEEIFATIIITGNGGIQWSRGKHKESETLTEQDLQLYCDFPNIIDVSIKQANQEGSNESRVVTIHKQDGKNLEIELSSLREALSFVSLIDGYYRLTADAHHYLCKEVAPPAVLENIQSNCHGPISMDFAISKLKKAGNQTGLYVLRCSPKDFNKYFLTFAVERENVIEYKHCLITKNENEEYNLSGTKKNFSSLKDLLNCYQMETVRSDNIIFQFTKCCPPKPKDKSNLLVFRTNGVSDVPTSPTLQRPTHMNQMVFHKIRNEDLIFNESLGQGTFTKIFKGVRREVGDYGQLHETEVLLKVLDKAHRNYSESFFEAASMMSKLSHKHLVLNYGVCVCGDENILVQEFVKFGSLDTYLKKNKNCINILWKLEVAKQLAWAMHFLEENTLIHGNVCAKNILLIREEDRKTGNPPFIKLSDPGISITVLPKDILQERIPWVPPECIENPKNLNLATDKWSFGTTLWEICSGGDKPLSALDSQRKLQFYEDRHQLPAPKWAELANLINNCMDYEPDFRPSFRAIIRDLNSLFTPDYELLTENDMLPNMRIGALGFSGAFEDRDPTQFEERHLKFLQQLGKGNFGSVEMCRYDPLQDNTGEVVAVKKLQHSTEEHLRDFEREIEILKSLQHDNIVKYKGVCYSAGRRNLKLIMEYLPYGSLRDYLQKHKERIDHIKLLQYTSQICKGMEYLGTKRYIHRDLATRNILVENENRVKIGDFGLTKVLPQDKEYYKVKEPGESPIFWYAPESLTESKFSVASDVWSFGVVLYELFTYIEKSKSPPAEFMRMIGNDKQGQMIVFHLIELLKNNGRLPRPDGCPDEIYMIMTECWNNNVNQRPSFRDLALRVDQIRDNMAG

Row | SMILES | Ki (JAK2) [nM] | Ki (JAK3) [nM] | Ki (ROCK I (AA 6-553)) [nM] | Ki [1] [nM]
1 | CC(=O)N1[C@H](C)CN(c2cccc(-c3c[nH]c4ncc(C(=O)N5CCCCCC5)cc34)n2)C[C@@H]1C [Compound 55] | 500 to 5000 | 500 to 5000 |  | 
2 | CC(=O)N1[C@H](C)CN(c2cccc(-c3c[nH]c4ncc(NC(=O)c5cccc(Cl)c5)cc34)n2)C[C@@H]1C [Compound 174] | < 500 | < 500 |  | 
3 | O=C(O)c1ccc(-c2c[nH]c3ncc(Cl)cc23)cc1Cl [Compound 175] | < 500 | < 500 |  | 
4 | N#Cc1ccc(-c2c[nH]c3ncc(Cl)cc23)cc1 [Compound 176] | < 500 | < 500 |  | 
5 | Cc1cccc(-c2c[nH]c3ncc(Cl)cc23)c1 [Compound 185] | 500 to 5000 | < 500 |  | 
6 | COc1cnc2[nH]cc(-c3ncc(F)c(N[C@@H](C)C(=O)NCC(F)(F)F)n3)c2c1 [Compound 204] |  | < 500 | 500 to 5000 | 
7 | CCOc1cnc2[nH]cc(-c3cccc(N4C[C@@H](C)N(C(C)=O)[C@@H](C)C4)n3)c2c1 [Compound 205] |  | < 500 | 500 to 5000 | 
8 | CC(=O)N1[C@H](C)CN(c2cccc(-c3c[nH]c4ncc(OC(C)C)cc34)n2)C[C@@H]1C [Compound 206] |  | < 500 | 500 to 5000 | 
9 | C=C(C)COc1cnc2[nH]cc(-c3cccc(N4C[C@@H](C)N(C(C)=O)[C@@H](C)C4)n3)c2c1 [Compound 207] |  | < 500 | 500 to 5000 | 
10 | CC(=O)N1[C@H](C)CN(c2cccc(-c3c[nH]c4ncc(OCCCN5CCOCC5)cc34)n2)C[C@@H]1C [Compound 208] |  | < 500 | 500 to 5000 | 
11 | CC(=O)N1[C@H](C)CN(c2cccc(-c3c[nH]c4ncc(OCCOC(C)C)cc34)n2)C[C@@H]1C [Compound 209] |  | < 500 | 500 to 5000 | 
12 | Fc1cnc(-c2c[nH]c3ncc(Cl)cc23)nc1NCC1CCOC1 (stereo not shown) [Compound 373] |  |  | 500 to 5000 | < 500
13 | CNC(=O)COc1cccc([C@H](C)Nc2nc(-c3c[nH]c4ncc(Cl)cc34)ncc2F)c1 [Compound 376] |  |  | 500 to 5000 | < 500
14 | C[C@H](Nc1nc(-c2c[nH]c3ncc(Cl)cc23)ncc1F)c1cccc(OCCCN(C)C)c1 [Compound 377] |  |  | 500 to 5000 | < 500
15 | C[C@H](Nc1nc(-c2c[nH]c3ncc(C#CCO)cc23)ncc1F)c1ccc(F)cc1 [Compound 378] |  |  | 500 to 5000 | < 500
16 | Fc1cnc(-c2c[nH]c3ncc(Cl)cc23)nc1NC[C@H]1CCNC1 [Compound 379] |  |  | < 500 | < 500

Row | SMILES | Ki (JAK2) [nM] | Ki (JAK3) [nM] | Ki (ROCK I (AA 6-553)) [nM] | Ki [1] [nM]
17 | Fc1cnc(-c2c[nH]c3ncc(Cl)cc23)nc1N[C@@H]1CCNC1 [Compound 381] |  |  | < 500 | < 500
18 | CC(=O)N1CCC(CNc2nc(-c3c[nH]c4ncc(Cl)cc34)ncc2F)CC1 [Compound 383] |  |  | 500 to 5000 | < 500
19 | COCC#Cc1cnc2[nH]cc(-c3ncc(F)c(N[C@@H](C)c4ccc(F)cc4)n3)c2c1 [Compound 384] |  |  | 500 to 5000 | < 500
20 | C[C@H](Nc1nc(-c2c[nH]c3ncc(Cl)cc23)ncc1F)C(=O)NCCS(C)(=O)=O [Compound 389] |  |  | 500 to 5000 | < 500
21 | C[C@H](Nc1nc(-c2c[nH]c3ncc(Cl)cc23)ncc1F)C(=O)NC1CCS(=O)(=O)C1 (stereo partly shown) [Compound 390] |  |  | 500 to 5000 | 500 to 5000
22 | COCCNC(=O)[C@H](C)Nc1nc(-c2c[nH]c3ncc(Cl)cc23)ncc1F [Compound 392] |  |  | 500 to 5000 | < 500
23 | CNC(=O)[C@H](CC(C)C)Nc1nc(-c2c[nH]c3ncc(Cl)cc23)ncc1F [Compound 393] |  |  | 500 to 5000 | < 500
24 | C[C@H](Nc1nc(-c2c[nH]c3ncc(C#N)cc23)ncc1F)c1ccc(F)cc1 [Compound 394] |  |  | 500 to 5000 | < 500
25 | COC(=O)c1cc(F)c(N[C@@H](C)c2ccc(F)cc2)nc1-c1c[nH]c2ncc(Cl)cc12 [Compound 396] |  |  | 500 to 5000 | < 500
26 | COC(=O)c1cc(F)c(-c2c[nH]c3ncc(Cl)cc23)nc1N[C@@H](C)c1ccc(F)cc1 [Compound 398] |  |  | 500 to 5000 | < 500
27 | N#Cc1cc(-c2c[nH]c3ncc(Cl)cc23)nc(N2CCNCC2)c1 [Compound 399] |  |  | < 500 | < 500
28 | C[C@@H](CC(=O)O)Nc1nc(-c2c[nH]c3ncc(Cl)cc23)ncc1F [Compound 401] |  |  | 500 to 5000 | < 500
29 | CNC(=O)C[C@H](C)Nc1nc(-c2c[nH]c3ncc(Cl)cc23)ncc1F [Compound 402] |  |  | 500 to 5000 | 500 to 5000
30 | CCOc1cnc(-c2c[nH]c3ncc(Cl)cc23)nc1N[C@@H](C)C(=O)NCC(F)(F)F [Compound 408] |  |  | 500 to 5000 | < 500
31 | O=Cc1cc(-c2c[nH]c3ncc(Cl)cc23)nc(N2CCNCC2)c1 [Compound 409] |  |  | < 500 | < 500
32 | CC(C)Oc1cnc(-c2c[nH]c3ncc(Cl)cc23)nc1N[C@@H](C)C(=O)NCC(F)(F)F [Compound 410] |  |  | 500 to 5000 | < 500
